Measurements published in ChEMBL document CHEMBL5143690, “Identification of nitrofuranylchalcone tethered benzoxazole-2-amines as potent inhibitors of drug resistant Mycobacterium tuberculosis demonstrating bactericidal efficacy” (Bioorg Med Chem, 2022).
≈ marks a conversion by molar mass, not a printed value. Calls of active or inactive are those of the source. No cut-off for these calls is given here.

Key:
[1] = test system: Mycobacteroides chelonae; assay: Antimycobacterial activity against Mycobacterium chelonae ATCC 6841 assessed as inhibition of bacterial growth after 48 hrs by resazurin microtitre assay; type: functional
[2] = test system: Mycobacteroides abscessus; assay: Antimycobacterial activity against Mycobacterium abscessus ATCC 19977 assessed as inhibition of bacterial growth after 48 hrs by resazurin microtitre assay; type: functional
[3] = test system: Mycobacterium tuberculosis; assay: Antimycobacterial activity against Mycobacterium tuberculosis H37Rv ATCC 27294 assessed as inhibition of bacterial growth measured after 7 days by resazurin microtitre assay; type: functional; conditions: H37Rv ATCC 27294, 168 h, time 7 day
[4] = Selectivity index, ratio of CC50 for African green monkey Vero cells to MIC for Mycobacterium tuberculosis H37Rv ATCC 27294; type: toxicity; conditions: read-out: Selectivity Index
[5] = test system: Mycolicibacterium fortuitum; assay: Antimycobacterial activity against Mycobacterium fortuitum ATCC 6841 assessed as inhibition of bacterial growth after 48 hrs by resazurin microtitre assay; type: functional
[6] = test system: Acinetobacter baumannii; assay: Antibacterial activity against Acinetobacter baumannii BAA 1605 assessed as reduction in bacterial growth incubated for 16 to 18 hrs by microtiter plate assay; type: functional; conditions: time 16-18 hrs
[7] = test system: Klebsiella pneumoniae; assay: Antibacterial activity against Klebsiella pneumoniae BAA 1705 assessed as reduction in bacterial growth incubated for 16 to 18 hrs by microtiter plate assay; type: functional; conditions: time 16-18 hrs
[8] = test system: Escherichia coli; assay: Antibacterial activity against Escherichia coli ATCC 25922 assessed as reduction in bacterial growth incubated for 16 to 18 hrs by microtiter plate assay; type: functional; conditions: time 16-18 hrs
[9] = Cytotoxicity against African green monkey Vero cells assessed as reduction in cell viability measured after 72 hrs by MTT assay; type: toxicity, cell-based; conditions: chlorocebus sabaeus
[10] = test system: Staphylococcus aureus; assay: Antibacterial activity against Staphylococcus aureus ATCC 29213 assessed as reduction in bacterial growth incubated for 16 to 18 hrs by microtiter plate assay; type: functional; conditions: time 16-18 hrs
[11] = test system: Pseudomonas aeruginosa; assay: Antibacterial activity against Pseudomonas aeruginosa ATCC 27853 assessed as reduction in bacterial growth incubated for 16 to 18 hrs by microtiter plate assay; type: functional; conditions: time 16-18 hrs
[12] = test system: Mycobacterium tuberculosis; assay: Antimycobacterial activity against Mycobacterium tuberculosis H37Rv assessed as reduction in log10CFU at 10 X MIC measured after 5 to 6 days by time kill assay; type: functional, organism-based; conditions: time 5-6 day
[13] = test system: Mycobacterium tuberculosis; assay: Antimycobacterial activity against Mycobacterium tuberculosis H37Rv assessed as reduction in log10CFU at 1XMIC measured after 5 to 6 days by time kill assay; type: functional, organism-based; conditions: time 5-6 day
[14] = Metabolic stability in human liver microsomes assessed as half life at 1 uM preincubated for 5 mins in presence of NADPH incubated up to 60 mins by LC-MS/MS analysis; type: ADME, Microsome; conditions: time 65 min
[15] = test system: Mycobacterium tuberculosis; assay: Antimycobacterial activity against Mycobacterium tuberculosis H37Rv at 10 X MIC measured after 5 to 7 days by time kill assay; type: functional; conditions: time 5-7 day
[16] = Metabolic stability in human liver microsomes assessed as elimination rate constant at 1 uM preincubated for 5 mins in presence of NADPH incubated up to 60 mins by LC-MS/MS analysis; type: ADME, Microsome; conditions: time 65 min
[17] = test system: Mycobacterium tuberculosis; assay: Antimycobacterial activity against Mycobacterium tuberculosis H37Rv assessed as minimum bactericidal concentration by time kill assay; type: functional
[18] = Metabolic stability in human liver microsomes assessed as intrinsic clearance at 1 uM preincubated for 5 mins in presence of NADPH incubated up to 60 mins by LC-MS/MS analysis; type: ADME, Microsome; conditions: time 65 min, read-out: CLH
[19] = Aqueous solubility in phosphate buffer at pH 7.4 incubated for 4 hrs by HPLC analysis; type: physicochemical
[20] = test system: Mycobacterium tuberculosis; assay: Antimycobacterial activity against Mycobacterium tuberculosis H37Rv at 1 X MIC measured after 5 to 7 days by time kill assay; type: functional; conditions: time 5-7 day

Cc1ccc2oc(Nc3ccc(C(=O)/C=C/c4ccc([N+](=O)[O-])o4)cc3)nc2c1
MIC [1]: > 64 mg/L
MIC [2]: > 64 mg/L
MIC [3]: 0.06 mg/L (≈ 0.154 µM)
selectivity ratio [4]: 80
MIC [5]: > 64 mg/L
MIC [6]: > 64 mg/L
MIC [7]: > 64 mg/L
MIC [8]: > 64 mg/L
CC50 at 72 h [9]: 5 mg/L (≈ 12.8 µM)
MIC [10]: 4 mg/L (≈ 10.3 µM)
MIC [11]: > 64 mg/L

O=C(/C=C/c1ccc([N+](=O)[O-])o1)c1cccc(Nc2nc3ccccc3o2)c1
MIC [1]: > 64 mg/L
MIC [2]: > 64 mg/L
MIC [3]: 0.06 mg/L (≈ 0.16 µM)
selectivity ratio [4]: 80
MIC [5]: > 64 mg/L
MIC [6]: > 64 mg/L
MIC [7]: > 64 mg/L
MIC [8]: > 64 mg/L
CC50 at 72 h [9]: 5 mg/L (≈ 13.3 µM)
MIC [10]: 16 mg/L (≈ 42.6 µM)
MIC [11]: > 64 mg/L

O=C(/C=C/c1ccc([N+](=O)[O-])o1)c1ccc(Nc2nc3ccccc3o2)cc1
MIC [1]: > 64 mg/L
MIC [2]: > 64 mg/L
MIC [3]: 0.12 mg/L (≈ 0.32 µM)
selectivity ratio [4]: 40
MIC [5]: > 64 mg/L
MIC [6]: > 64 mg/L
MIC [7]: > 64 mg/L
Activity [12]: Active
MIC [8]: > 64 mg/L
CC50 at 72 h [9]: 5 mg/L (≈ 13.3 µM)
MIC [10]: 4 mg/L (≈ 10.7 µM)
Activity [13]: Active
MIC [11]: > 64 mg/L

COc1ccc(C(=O)/C=C/c2ccc([N+](=O)[O-])o2)cc1Nc1nc2ccccc2o1
MIC [1]: > 64 mg/L
MIC [2]: > 64 mg/L
MIC [3]: 0.25 mg/L (≈ 0.617 µM)
selectivity ratio [4]: < 10
MIC [5]: > 64 mg/L
MIC [6]: > 64 mg/L
MIC [7]: > 64 mg/L
MIC [8]: > 64 mg/L
CC50 at 72 h [9]: 5 mg/L (≈ 12.3 µM)
MIC [10]: 8 mg/L (≈ 19.7 µM)
MIC [11]: > 64 mg/L

O=C(/C=C/c1ccc([N+](=O)[O-])o1)c1ccc(Nc2nc3cc([N+](=O)[O-])ccc3o2)cc1
MIC [1]: > 64 mg/L
MIC [2]: > 64 mg/L
MIC [3]: 0.03 mg/L (≈ 0.0714 µM)
selectivity ratio [4]: > 800
MIC [5]: > 64 mg/L
MIC [6]: > 64 mg/L
MIC [7]: > 64 mg/L
Activity [12]: Active
MIC [8]: > 64 mg/L
CC50 at 72 h [9]: 5 mg/L (≈ 11.9 µM)
MIC [10]: 4 mg/L (≈ 9.52 µM)
Activity [13]: Active
MIC [11]: > 64 mg/L

CC(C)(C)c1ccc2oc(Nc3ccc(C(=O)/C=C/c4ccc([N+](=O)[O-])o4)cc3)nc2c1
MIC [1]: > 64 mg/L
MIC [2]: > 64 mg/L
MIC [3]: 0.5 mg/L (≈ 1.16 µM)
selectivity ratio [4]: < 10
MIC [5]: > 64 mg/L
MIC [6]: > 64 mg/L
MIC [7]: > 64 mg/L
MIC [8]: > 64 mg/L
CC50 at 72 h [9]: 5 mg/L (≈ 11.6 µM)
MIC [10]: 8 mg/L (≈ 18.5 µM)
MIC [11]: > 64 mg/L

CO[C@H]1/C=C/O[C@@]2(C)Oc3c(C)c(O)c4c(O)c(c(/C=N/N5CCN(C)CC5)c(O)c4c3C2=O)NC(=O)/C(C)=C\C=C\[C@H](C)[C@H](O)[C@@H](C)[C@@H](O)[C@@H](C)[C@H](OC(C)=O)[C@@H]1C [RIFAMPIN]
MIC [3]: 0.03 mg/L (≈ 0.0365 µM)
Activity [12]: Active
Activity [13]: Active

O=C(/C=C/c1ccc([N+](=O)[O-])o1)c1ccc(Nc2nc3cc(Cl)ccc3o2)cc1
MIC [1]: > 64 mg/L
half-life at 1 µM [14]: 34.6 min
MIC [2]: > 64 mg/L
MIC [3]: 0.03 mg/L (≈ 0.0732 µM)
Activity [15]: 100%
selectivity ratio [4]: 160
k el at 1 h, 1 µM [16]: 0.000333 s⁻¹
MIC [5]: > 64 mg/L
MIC [6]: > 64 mg/L
MIC [7]: > 64 mg/L
MIC [8]: > 64 mg/L
CC50 at 72 h [9]: 5 mg/L (≈ 12.2 µM)
MIC [10]: 4 mg/L (≈ 9.76 µM)
MBC [17]: 0.03 mg/L (≈ 0.0732 µM)
MIC [11]: > 64 mg/L
microsomal CLint at 1 µM [18]: 38.5 µL/min/mg
solubility at 4 h [19]: 2.5 µg/mL (≈ 6.1 µM)
Activity [20]: 100%

O=C(/C=C/c1ccncc1)c1ccc(Nc2nc3ccccc3o2)cc1
MIC [1]: > 64 mg/L
MIC [2]: > 64 mg/L
MIC [3]: 16 mg/L (≈ 46.9 µM)
MIC [5]: > 64 mg/L
MIC [6]: > 64 mg/L
MIC [7]: > 64 mg/L
MIC [8]: > 64 mg/L
MIC [10]: > 64 mg/L
MIC [11]: > 64 mg/L
